{
  "source": "patent US9120756B2",
  "about": "“Substituted phenylureas and phenylamides as vanilloid receptor ligands” (Gruenenthal GmbH, priority 2009, dated 2015)",
  "key": {"[1]": {"biological_target": "rat-species vanilloid receptor 1 (VR1/TRPV1) (Rattus norvegicus (Rat), UniProt O35433)", "sequence (O35433 whole entry)": "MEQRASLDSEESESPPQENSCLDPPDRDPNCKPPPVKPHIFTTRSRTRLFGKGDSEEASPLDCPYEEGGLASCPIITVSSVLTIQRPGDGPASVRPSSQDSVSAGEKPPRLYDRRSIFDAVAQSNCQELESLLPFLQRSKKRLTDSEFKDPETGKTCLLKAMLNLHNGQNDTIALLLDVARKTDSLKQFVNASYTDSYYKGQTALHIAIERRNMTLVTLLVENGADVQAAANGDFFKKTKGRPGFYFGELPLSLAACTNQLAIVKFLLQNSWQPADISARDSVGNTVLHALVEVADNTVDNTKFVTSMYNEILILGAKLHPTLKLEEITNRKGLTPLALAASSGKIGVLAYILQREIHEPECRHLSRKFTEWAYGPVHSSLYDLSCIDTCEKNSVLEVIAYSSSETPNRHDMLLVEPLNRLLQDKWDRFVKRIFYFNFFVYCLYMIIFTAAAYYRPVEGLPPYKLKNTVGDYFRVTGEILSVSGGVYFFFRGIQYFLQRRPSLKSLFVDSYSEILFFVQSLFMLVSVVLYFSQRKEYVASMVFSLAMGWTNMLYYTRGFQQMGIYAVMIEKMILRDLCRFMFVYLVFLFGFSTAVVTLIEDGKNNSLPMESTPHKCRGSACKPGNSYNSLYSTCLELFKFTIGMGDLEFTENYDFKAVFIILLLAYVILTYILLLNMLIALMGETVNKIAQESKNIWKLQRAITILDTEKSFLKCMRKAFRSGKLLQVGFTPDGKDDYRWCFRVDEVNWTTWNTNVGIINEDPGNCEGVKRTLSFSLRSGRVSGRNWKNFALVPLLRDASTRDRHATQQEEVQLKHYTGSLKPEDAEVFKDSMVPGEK", "experiment": "FLIPR Ca2+ influx assay on rat dorsal root ganglia cells, capsaicin stimulus (method I)", "type": "cell-based", "conditions": "capsaicin (Cap)"}, "hVR1": {"biological_target": "hVR1 (Homo sapiens (Human), UniProt Q8NER1)", "sequence (Q8NER1 whole entry)": "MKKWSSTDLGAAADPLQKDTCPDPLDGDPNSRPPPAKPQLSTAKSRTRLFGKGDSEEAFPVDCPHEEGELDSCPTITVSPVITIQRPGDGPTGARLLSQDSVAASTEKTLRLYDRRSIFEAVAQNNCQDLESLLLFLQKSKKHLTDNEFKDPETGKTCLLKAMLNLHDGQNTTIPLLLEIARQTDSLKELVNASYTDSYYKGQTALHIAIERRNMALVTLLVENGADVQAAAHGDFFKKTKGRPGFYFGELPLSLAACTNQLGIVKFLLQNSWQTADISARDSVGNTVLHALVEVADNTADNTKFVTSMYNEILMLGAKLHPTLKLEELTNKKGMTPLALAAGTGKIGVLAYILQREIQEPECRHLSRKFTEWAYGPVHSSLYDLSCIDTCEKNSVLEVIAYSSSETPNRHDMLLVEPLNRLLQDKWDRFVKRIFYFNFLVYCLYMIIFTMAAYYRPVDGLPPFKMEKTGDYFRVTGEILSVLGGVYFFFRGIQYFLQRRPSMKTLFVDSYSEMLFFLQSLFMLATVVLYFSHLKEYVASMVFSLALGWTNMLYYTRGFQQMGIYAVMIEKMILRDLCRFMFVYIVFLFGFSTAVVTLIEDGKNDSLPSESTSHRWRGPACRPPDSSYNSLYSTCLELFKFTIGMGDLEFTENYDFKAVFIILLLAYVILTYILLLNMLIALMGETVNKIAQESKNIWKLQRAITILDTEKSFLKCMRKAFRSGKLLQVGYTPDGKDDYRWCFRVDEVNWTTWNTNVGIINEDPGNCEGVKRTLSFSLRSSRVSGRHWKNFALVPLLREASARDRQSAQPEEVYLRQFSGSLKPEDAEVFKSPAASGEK", "experiment": "FLIPR Ca2+ influx assay on CHO K1 cells transfected with the VR1 gene, capsaicin stimulus (method II)", "type": "cell-based", "conditions": "capsaicin (Cap), read-out: Ki (human being) [nM] Cap"}},
  "data": [
    {"smiles": "O=C(Cc1cccc(F)c1)NCc1cc(C(F)(F)F)nn1-c1cccc(Cl)c1", "note": "[Example 74, N-((1-(3-chlorophenyl)-3-(trifluoromethyl)-1H-pyrazol-5-yl)methyl)-2-(3-fluorophenyl)acetamide]", "values": [
      {"measurement": "Ki", "setting": "[1]", "result": 85, "unit": "nM"},
      {"measurement": "Ki", "setting": "hVR1", "result": 51.8, "unit": "nM"}
    ]}
  ]
}
